The record followed here is patent US8871900B2, “Fibroblast growth factor (FGF) analogs and uses thereof” (University of Rochester, priority 2008, dated 2014).

The structures appear in SMILES notation. “Also recorded” adds a separate entry of the source. Peptide text beside a SMILES is read from it.

Data set [1] has as its system epithelial cells (SW480, a cell line from colon). Briefly: Growth bioassay, epithelial cells. In kind it is cell-based. Conditions: FGF-P added to culture media. The protocol: These clusters can be counted thus allowing for measurement of relative binding coefficients. To test the feasibility of binding coefficient measurement, competition experiments were performed. Free FGF-P (30 ug/ml) was added to cells for 20 min and then the biotin-FGF-P (1 μg/mL) was added. One hour later, the streptavidin-FITC was added and analyzed by flow cytometry. […] In a third test, a bioassay was performed. FGF-P was added to culture media of two types of cells: endothelial cells (adult bovine aorta endothelium) and epithelial cells (SW480, a cell line from colon).
Three preliminary experiments were carried out using FGF-P in vitro to confirm its activity. First, the biotin conjugated FGF-P was used as a tool to examine cell surface binding. AsPC-1 pancreatic cancer epithelial cells are known to have high levels of FGFR and were used for this study. ASPC-1 cells were incubated with 1 μg/ml of biotin-FGF-P and then labeled with streptavidin-FITC. The cells were then analyzed using an imaging flow cytometer (Amnis Imagestream). This device can image each cell as it passes through the laser, and it can then sort cells according to both staining and morphological characteristics. […] These clusters were counted, allowing for measurement of relative binding coefficients. […] One hour later, streptavidin-FITC was added and analyzed by flow cytometry. […]

The nature of data set [2]: Plasma endotoxin after sub-TBI (tachypleus amebocyte lysate kit). The following applies: Balb/c, 10.5 Gy sub-TBI, 3.5 days post-IR; FGF-P treated (vehicle 3.32, normal 0.45). In kind it is in vivo, mouse (Balb/c, C57BL/6). The protocol: Some studies have employed bacterial culture of liver samples. Bacterial translocation occurs due to mucosal barrier changes (1) at the level of the basement membrane and (2) bowel mucous volume and composition. The most reliable and most clinically applicable method to measure bacterial translocation is the endotoxin assay. The level of plasma endotoxin 3.5 days post-IR was measured with a commercialized kit that utilized tachypleus amebocyte lysate to sensitively quantitate endotoxin at extremely low levels (<0.01 EU/ml); and 4) body weight (BW): poor nutrition and water absorption will result in reduced body weight. The rate and severity of weight loss, as well as the pace of body weight recovery, will be measured.
2) A standard scoring scale was used to evaluate stool formation (diarrhea). The bowel was extracted from the abdomen and visually inspected. Formed stool was easily distinguished from semi-solid and liquid stool as it passed from the ascending to descending colon. FIGS. 7B and 7C show the irradiated bowel in controls compared with FGF-P-treated Balb/c mice. The FGF-P was given at a dose of 2 mg/kg im for three daily doses beginning 15 min after irradiation. Animals were sacrificed 3.5 days after 10.5 Gy sub-TBI.

The subject of another data set is MCP-1, IL-6, TNFα. Briefly: Plasma inflammatory molecules after sub-TBI (Luminex bead array). In kind it is in vivo, mouse (Balb/c). Conditions: Balb/c, 12 Gy sub-TBI, 3.5 days; FGF-P 2 mg/kg at 10 min post-IR and daily for two days. The protocol: Bead array technology has been developed to facilitate the study of cytokine expression profiles in normal tissues following radiation. Bead arrays have several advantages over ELISA. First, mice have a limited blood volume (0.3-0.4 ml of plasma/mouse). Each ELISA typically requires approximately 0.1 ml and thus only a limited number of assays are possible. Secondly, the time required to perform ELISAs one by one stresses the system in a large experiment and would be difficult to perform in the field in case of a radiological event. The Luminex bead array technology was used. The paired monoclonal antibodies, the highly-purified protein standards, and the more than 50 different cytokinespecific beads were purchased. In these studies, Balb/c mice received 12 Gy sub-TBI and then im injection of vehicle alone (0.2 ml of saline), FGF-P (2 mg/kg at 10 min post-IR and daily for two days), or Amifostine (200 mg/kg, either 30 min before IR, or 10 min after IR). The samples were collected 3.5 days after IR.
All three of these cytokines are associated with increased severity and progression of radiation-related inflammatory toxicity in mouse and man.

The nature of another data set: Stability of FGF-P. Type of data set: physicochemical.
The subject of data set [3] is BM cells (megakaryocyte colony). Briefly: Megakaryocyte colony formation of BM cells (MegaCult-C). Type of data set: cell-based, mouse (Balb/c). The following applies: cytokine cocktail reduced to 50%; FGF-P 100 ng/ml. The text has this: Survival of ARS depends on rapid reconstitution of hematopoiesis after IR-induced myelosuppression. […] However, the timing and mechanism of effect on BM stem cells is unknown. Also unclear are the number of FGFRs on hematopoietic stem cells (HSCs) and their role in reconstitution after IR. […] To characterize the effects of FGF-P on BM, the study approach was to obtain fresh BM (including both HSCs and MSCs) from Balb/c mice, and culture it under varying conditions (3 D culture or 2 D round-bottom well) in triplicate for 1-3 weeks. The BM cells were stimulated with FGF-P at different doses (as test) or with EPO, TPO, GM-CSF or native FGF2 (as a positive control). The cultures were examined using several methods including colony count, photography, CyQUANT® assay and ^3H-TdR incorporation.

A short description of data set [4]: Tail vein bleeding time after 4 Gy TBI. Type of data set: in vivo, mouse. Conditions: 10 days after 4 Gy TBI; FGF-P 15 mg/kg daily for 3 days then every other day for 3 times. The text has this: The bleeding is stopped by coagulant cascade, mainly the platelet aggregation, the vessel contraction and thrombosis which are trigged by the released platelet granules (Francis 2007, Khorana 2005). IR blocks the megakaryocytopoiesis and reduces the thrombocytopoiesis (an imbalance between the synthesis and consuming of coagulant proteins), which leads to a prolonged bleeding time. To determine if FGF-P has any effect on the bleeding time, the a single tail vein at the same anatomy position was cut in same depth and merged into 37° C. warm water, the time between bleeding and stopping was recorded. The test was performed on 10 days after 4 Gy TBI.

The test system of a further data set is Cdc42, Rac1, Mapk10, Cfl. Briefly: Gene expression in irradiated BM cells (Luminex multiplex array). Type of data set: cell-based, mouse. The following applies: treatment 20 min after 5 Gy IR, 6 hours, P<0.05.
Another data set addresses human FGFR1 (Homo sapiens, UniProt P11362). As to the kind of experiment: Biacore binding assay. Background: In SPR one partner is held on a chip, and binding of the other changes the refractive index at the surface.

Sequence of human FGFR1 (P11362 22-822): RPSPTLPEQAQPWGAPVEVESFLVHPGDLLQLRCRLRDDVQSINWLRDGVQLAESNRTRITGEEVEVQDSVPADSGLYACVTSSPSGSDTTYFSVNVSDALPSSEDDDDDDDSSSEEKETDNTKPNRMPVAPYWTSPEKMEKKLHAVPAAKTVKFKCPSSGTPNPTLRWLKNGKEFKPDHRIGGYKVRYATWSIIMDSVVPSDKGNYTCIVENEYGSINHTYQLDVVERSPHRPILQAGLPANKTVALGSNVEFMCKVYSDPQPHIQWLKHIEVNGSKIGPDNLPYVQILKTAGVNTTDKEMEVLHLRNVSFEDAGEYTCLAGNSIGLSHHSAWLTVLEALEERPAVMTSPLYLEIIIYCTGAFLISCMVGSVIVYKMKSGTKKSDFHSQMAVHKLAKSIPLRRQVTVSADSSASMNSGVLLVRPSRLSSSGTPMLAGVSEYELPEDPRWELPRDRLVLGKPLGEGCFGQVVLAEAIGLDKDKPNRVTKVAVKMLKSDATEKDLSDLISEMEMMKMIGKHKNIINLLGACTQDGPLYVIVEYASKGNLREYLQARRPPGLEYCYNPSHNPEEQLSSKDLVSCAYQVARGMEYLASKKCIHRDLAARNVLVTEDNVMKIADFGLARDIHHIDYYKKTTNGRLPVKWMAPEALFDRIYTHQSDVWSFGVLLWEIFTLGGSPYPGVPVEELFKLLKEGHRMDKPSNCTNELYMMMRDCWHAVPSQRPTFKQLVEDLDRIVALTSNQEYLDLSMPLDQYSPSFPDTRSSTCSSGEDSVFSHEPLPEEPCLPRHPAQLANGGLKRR

With `CC(C)C[C@H](NC(=O)[C@H](C)NC(=O)[C@@H](NC(=O)[C@H](Cc1ccc(O)cc1)NC(=O)[C@H](Cc1c[nH]c2ccccc12)NC(=O)[C@H](CO)NC(=O)[C@H](CO)NC(=O)[C@H](Cc1ccc(O)cc1)NC(=O)[C@H](CCCCN)NC(=O)[C@H](CCCNC(=N)N)NC(=O)[C@H](CO)NC(=O)[C@H](CCCNC(=N)N)NC(=O)[C@H](Cc1ccc(O)cc1)NC(=O)[C@@H](N)CS)C(C)C)C(=O)N[C@@H](CCCCN)C(=O)N[C@@H](CCCNC(=N)N)C(=O)N[C@@H](CS)C(=O)O` [FGF-P, CYRSRKYSSWYVALKRC] (H-CYRSRKYSSWYVALKRC-OH; N-terminus and C-terminus assumed), the growth of epithelium entry in data set [1] was “stimulated the growth of both endothelium and epithelium”. For the same compound, the “plasma endotoxin level (mean)” value in data set [2] worked out at 2.12 EU/ml. Also, in the data set with MCP-1, IL-6, TNFα, the “plasma MCP-1, IL-6 and TNFα” value is “normalized or near-normalized these factors”. The enzyme resistance entry in the data set “Stability of FGF-P” (dry powder) is listed as “enzyme-resistant as a dry powder”. Besides, the stability result in “Stability of FGF-P” (severe conditions / liquid, boiling) was “stable as a liquid even with boiling; also recorded: stable under severe conditions, for example to boiling”. The “effectiveness of boiled FGF-P” value in “Stability of FGF-P” (stability test, boiled vs original form) is on record as “as effective as the original form”. Further, the megakaryocyte colony formation result in data set [3] is on record as “greatly stimulated the formation of megakaryocyte colony to the level as native FGF2”. In data set [4], the bleeding time entry is listed as “shorter bleeding time”. In the data set on Cdc42, Rac1, Mapk10, Cfl, the “expression of Cdc42” value is listed as “reversed the IR-suppressed expression”, the “expression of Cfl (cofilin 1)” value is given as “suppressed towards normal”, the “expression of Mapk10” value is on record as “suppressed towards normal” and the “expression of Rac1” value is “reversed the IR-suppressed expression”. At human FGFR1, the “binding to human FGFR1” value was “binding of FGF-P to human FGFR1”.
